Consider 59 compounds from the METLIN SMRT retention time set (Domingo-Almenara et al. 2019).

A short description of the series: gradient 5% acetonitrile 3 min, to 50% in 2 min, to 85% in 15 min, held 3 min, 100 µL/min. To be noted: column: Zorbax Extend-C18 2.1 x 50 mm; eluents: water / acetonitrile, 0.1% formic acid. The method, boiled down:
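Retention time was recorded from adduct peaks, which were picked computationally and each inspected manually. Pure standards ran in mixtures of ~100 molecules on HPLC coupled to a quadrupole time-of-flight mass spectrometer, in positive and negative ionization mode, through a Zorbax Extend-C18 column (2.1 × 50 mm, 1.8 μm) at 100 μL/min. Eluents were water and acetonitrile, each with 0.1% formic acid.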
In turn, `Cc1ccc2c(=O)c3c([nH]c2c1C)CCN(CC(=O)Nc1ccccc1Cl)C3` displayed an RP-LC retention time of 640 s.

`CNC(=O)c1ccc(-c2nc3cc(NS(=O)(=O)c4ccc(C(C)C)cc4)ccc3n2C)cc1` showed an RP-LC retention time of 713 s.

Consider `Cn1c(=O)c(N2CCCC(C(=O)NCCCN3CCC(N4CCCCC4)CC3)C2)nc2cccnc21` (centres undefined), for which the RP-LC retention time was 568 s. Next, `COCC(=O)N1CCC2(CC1)NCc1ccccc1-n1ccnc12`: 548 s.

`CCCc1noc(-c2ccnc(-n3ncc(C(=O)Nc4ccc(Cl)cc4)c3C)c2)n1`: the RP-LC retention time turned out to be 1270 s. The same measure for `Cc1cccc(Nc2ccc(N3CCN(C(=O)c4cccs4)CC3)nn2)n1`: 579 s; for `Fc1cccc(-c2noc(-c3ccc(N4CCN(c5ncccn5)CC4)nc3)n2)c1`: 1230 s; for `CCCS(=O)(=O)N1CC[C@@H]2COCCN(Cc3ccccc3)[C@@H]2C1`: 626 s.

`O=C1NC(C(=O)NC2CC2)Cn2cccc21` (centres undefined) gave an RP-LC retention time of 569 s. The same measure for `Cn1ccc(C(=O)Nc2ccc(S(C)(=O)=O)cc2)n1`: 613 s; for `COc1cc(NC(=O)Cn2c(C)cc(-c3nnc(C)o3)c2C)cc(OC)c1`: 748 s; for `CN(Cc1ccccc1)C(=O)c1ccc2c(c1)N(CC(=O)N1CCCC1)C(=O)CO2`: 723 s. Next, `CCOC(=O)c1[nH]c(C)c(C(=O)N2CCC(CC(=O)NC3CCCC3)CC2)c1C`: 696 s; `O=S(=O)(NC1CCCC1)c1ccc(-c2nnc(C3CCC3)o2)o1`: 900 s; `Cc1oc(C2CCN(C(=O)Cc3c(F)cccc3Cl)CC2)nc1C(=O)N(C)C`: 747 s. The same measure for `Cc1ccccc1Nc1cc(C)n2c(=O)n(Cc3cccnc3)nc2n1`: 750 s. In the case of `Cc1ccc(NC(=O)CN2C(=O)CCc3cc(S(=O)(=O)N4CCCCC4C)ccc32)c(C)c1` (centres undefined), the RP-LC retention time is 945 s. The same measure for `Cc1ccc2c(Nc3ccc(O)cc3)c(C(=O)OC(C)C)cnc2n1`: 640 s. `Cc1ccc(-c2nc3cnccn3c2NCCC(=O)NC(C)c2ccccn2)cc1` (centres undefined): the RP-LC retention time was found to be 586 s. Next, `COc1cccc(C#N)c1OCC(N)=O`: 592 s; `O=C(CN1CCOCC1)N1CCCCC1c1nc(C2CC2)no1` (centres undefined): 590 s.

In turn, `CCOC(=O)c1ccc(-c2c(C(=O)OCC)oc3cc(O)c(CC)cc3c2=O)o1` registered an RP-LC retention time of 955 s. Next, `Cc1nc(-c2csc(S(=O)(=O)N3CCCC(C(=O)NCCN4CCCCCC4)C3)c2)no1` (centres undefined): 665 s; `CCCCc1ccc(NC(=O)CSc2cc(N3CCN(c4ccccc4OC)CC3)ncn2)cc1`: 1310 s. Compound `Cc1cc(C)n(CC(=O)N2CCCCCCNC(=O)[C@@H]3CCCC[C@@H]32)n1` displayed an RP-LC retention time of 715 s. Next, `Clc1ccc(OCCSc2nnc(-c3ccc4c(c3)OCO4)o2)cc1`: 1130 s; `OC1(c2ccccn2)CCOC2(CCN(Cc3cccc(Cl)c3F)CC2)C1` (centres undefined): 576 s; `CC1(C)CC(=O)c2cn(-c3ccc(F)cc3)c(=O)c(C(=O)N3CCOCC3)c2C1`: 695 s. Next, `Cc1ccc(-n2c(=O)n(CC(=O)NCCCN3CCOCC3)c3cccnc32)cc1`: 591 s. The same measure for `COc1ccccc1NC(=O)N1CCc2[nH]cnc2C1c1ccncc1` (centres undefined): 540 s. Compound `CCN(C(=O)Cn1c(C(C)NC(=O)c2ccco2)nc2ccccc21)c1ccccc1` (centres undefined) showed an RP-LC retention time of 704 s.

On to `CC(NC(=O)Cn1c(C(F)(F)F)nc2cc3c(cc21)OCCO3)c1ccc2c(c1)OCCCO2` (centres undefined), for which the RP-LC retention time turned out to be 855 s. The same measure for `Cc1ccc2cc(CCC(=O)NCc3nc4ccccc4n3C)c(=O)[nH]c2c1`: 617 s. The same measure for `COc1ccc(C(=O)NC2CCN(c3cc(-c4ccc(Cl)cc4)[nH]n3)C2)c(OC)c1` (centres undefined): 754 s. Next, `COc1ccc(OC)c2sc(NC(=O)c3ccc(S(=O)(=O)N4CCCC4)cc3)nc12`: 872 s; `O=c1c2ccccc2n(Cc2nc(-c3ccccc3)no2)c(=O)n1Cc1ccco1`: 1050 s. `COc1ccccc1C(=O)N1CCC2(CC1)NC(=O)c1cc(F)ccc1N2C` came in with an RP-LC retention time of 752 s.

Regarding `CCOc1ccc(CCNC(=O)C2CCCN(C(=O)c3cc(C)cc(C)c3)C2)cc1OCC` (centres undefined), the RP-LC retention time came to 920 s. The same measure for `CCc1noc(-c2cccnc2N2CCCN(Cc3cccc(C)c3)CC2)n1`: 690 s. Next, `COc1ccc(N2CC(c3nc(-c4ccc(CNC(=O)C5CC5)s4)no3)CC2=O)cc1` (centres undefined): 748 s; `CCOc1ccccc1-c1noc(-c2nnn3c2COC(c2ccc(F)cc2)C3)n1` (centres undefined): 1130 s. The same measure for `Cn1cc(C(=O)NCCCc2ccccc2)c(S(=O)(=O)N2CCSCC2)n1`: 944 s; for `COCc1nc2cccnc2n1C1CCN(C(=O)Nc2ccc(OC)c(OC)c2)CC1`: 638 s.

Regarding `COc1ccc(Cl)cc1NC(=O)C(=O)NCC1(O)CCOCC1`, the RP-LC retention time came out at 706 s.

`Cc1nc2c(sc3nc(-c4ccccc4)ccc32)c(=O)n1CC(=O)Nc1ccc(F)cc1Cl` came in with an RP-LC retention time of 1090 s. Next, `O=C(Nc1ccccc1)c1ccc2c(cnn2CC(=O)N2CCCCCC2)c1`: 800 s; `COc1cccc2cc(C(=O)NCCn3nc(C)cc3C)oc12`: 674 s. As to `Cc1ccc(CNC(=O)C2CCN(c3nc4cccnc4s3)CC2)o1`, the RP-LC retention time was 704 s. Next, `O=C(CCc1csc(NC(=O)c2ccc(F)cc2)n1)NCc1nc2ccccc2[nH]1`: 577 s. As for `O=C(N/N=C/c1ccc([N+](=O)[O-])o1)c1ccc(O)cc1`, the RP-LC retention time was determined as 675 s. The compound `O=C(Nc1ccc(OCc2nnc(-c3ccccc3)o2)cc1)c1ccccn1` showed an RP-LC retention time of 905 s. Next, `CCNS(=O)(=O)c1cccnc1Nc1cccc(C)c1`: 998 s; `CNC(=O)N1CCc2c(c(-c3nc(-c4cccc(F)c4)no3)nn2C)C1`: 738 s.

Consider `CC1(C)N=C(N)N=C(N)N1c1ccc(CCCCc2ccc(Cl)cc2Cl)cc1`, for which the RP-LC retention time was found to be 878 s. The same measure for `CCCCn1c(=O)c2ccccc2n(Cc2nc(-c3ccc(C(F)(F)F)cc3)no2)c1=O`: 1260 s; for `CCOC(=O)c1ccc(NC(=O)Cn2nc3n(c2=O)CCCC3)cc1`: 676 s; for `Cc1cc(F)ccc1NC(=O)C1CCN(c2cnc3ccccc3n2)CC1`: 780 s. `CCC(=O)Nc1nc(-c2ccc3c(c2)NC(=O)CO3)cs1` gave an RP-LC retention time of 704 s. Next, `Cc1cc2c(cc1S(=O)(=O)N1CCCC1C(=O)NCc1ccccc1Cl)OCC(=O)N2` (centres undefined): 791 s.
